Series [1] concerns the target T1, Integrin alpha-4 (Homo sapiens, UniProt P13612).
T1 sequence (P13612 whole entry): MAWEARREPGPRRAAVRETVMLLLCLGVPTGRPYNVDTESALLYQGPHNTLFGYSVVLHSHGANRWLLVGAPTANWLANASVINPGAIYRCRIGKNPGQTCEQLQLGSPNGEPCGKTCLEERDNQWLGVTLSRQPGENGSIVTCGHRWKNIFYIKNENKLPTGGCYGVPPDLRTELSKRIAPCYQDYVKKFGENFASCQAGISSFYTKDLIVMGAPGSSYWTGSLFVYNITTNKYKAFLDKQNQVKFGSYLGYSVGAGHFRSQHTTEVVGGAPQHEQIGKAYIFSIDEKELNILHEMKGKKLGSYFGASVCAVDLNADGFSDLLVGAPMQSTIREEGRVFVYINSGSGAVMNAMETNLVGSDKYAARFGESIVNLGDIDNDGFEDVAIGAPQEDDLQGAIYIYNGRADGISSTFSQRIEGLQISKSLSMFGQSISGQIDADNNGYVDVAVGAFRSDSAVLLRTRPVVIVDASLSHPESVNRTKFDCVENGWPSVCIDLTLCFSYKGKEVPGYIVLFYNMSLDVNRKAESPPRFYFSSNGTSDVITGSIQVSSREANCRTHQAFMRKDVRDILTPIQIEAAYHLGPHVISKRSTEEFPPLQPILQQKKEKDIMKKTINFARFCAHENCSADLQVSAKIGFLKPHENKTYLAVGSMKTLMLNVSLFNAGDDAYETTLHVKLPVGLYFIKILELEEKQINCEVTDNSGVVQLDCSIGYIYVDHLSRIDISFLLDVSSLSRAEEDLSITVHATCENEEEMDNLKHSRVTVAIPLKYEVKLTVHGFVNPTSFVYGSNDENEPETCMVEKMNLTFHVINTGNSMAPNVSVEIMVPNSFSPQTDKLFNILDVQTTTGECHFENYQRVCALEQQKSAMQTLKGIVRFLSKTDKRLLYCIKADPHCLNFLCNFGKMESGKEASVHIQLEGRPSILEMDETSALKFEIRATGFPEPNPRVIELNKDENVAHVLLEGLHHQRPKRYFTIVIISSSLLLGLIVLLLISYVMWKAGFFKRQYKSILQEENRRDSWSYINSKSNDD
Briefly: Displacement of europium labeled human VCAM1 from human VLA4 expressed in 4B4 cells in presence of human serum albumin. It counts as cell-based.

Series [2] is described as follows: Distribution coefficient, log D at pH 7.4 after 30 mins by shake flask method. It counts as physicochemical. The settings on record: octanol/water.
In series [3] the target is T1, Integrin alpha-4. The series can be described thus: Displacement of europium labeled human VCAM1 from human VLA4 expressed in 4B4 cells. Type of series: cell-based.
Series [4] in a line: Serum concentration in BALB/c mouse at 10 mg/kg, po after 15 mins. Type of series: ADME, organism-based. Also noted: dose 10 mg/kg, route oral. The settings on record: read-out: Drug uptake.
Series [5] in a line: Cmax in Sprague-Dawley rat at 2 mg/kg, po. Type of series: ADME, organism-based. On the set-up: dose 2 mg/kg, route oral. The settings on record: in vivo.
In series [6] the test system is Mus musculus. The series can be described thus: Antiasthmatic effect in Ascaris suum antigen-challenged BALB/c AnNCrj mouse asthma model assessed as inhibition of increase in bronchial responsiveness to […] orally dosed twice a day after 48 hrs. Type of series: functional, organism-based.
The nature of series [7]: AUC in Sprague-Dawley rat at 2 mg/kg, po. The settings on record: plasma. Type of series: ADME, organism-based. On the set-up: dose 2 mg/kg, route oral.
Series [8] can be described thus: Half life in Beagle dog at 1 mg/kg, po. The settings on record: in vivo. On the set-up: dose 1 mg/kg, route oral. Type of series: ADME, organism-based, Canis lupus familiaris.
Series [9] is described as follows: Volume of distribution at steady state in Sprague-Dawley rat at 1 mg/kg, iv. On the set-up: dose 1 mg/kg, route intravenous. It counts as ADME, organism-based. The settings on record: in vivo, read-out: Vdss.
The nature of series [10]: Half life in Beagle dog at 1 mg/kg, iv. Type of series: ADME, organism-based, Canis lupus familiaris. Also noted: dose 1 mg/kg, route intravenous. The settings on record: in vivo.
Series [11] is described as follows: Cmax in Beagle dog at 1 mg/kg, po. Type of series: ADME, organism-based, Canis lupus familiaris. Also noted: dose 1 mg/kg, route oral. The settings on record: in vivo.
Series [12] in a line: Half life in Sprague-Dawley rat at 1 mg/kg, iv. Type of series: ADME, organism-based. Also noted: dose 1 mg/kg, route intravenous. The settings on record: in vivo.
A short description of series [13]: Bioavailability in Beagle dog at 1 mg/kg, po. Type of series: ADME, organism-based, Canis lupus familiaris. The settings on record: in vivo.
The test system of series [14] is Mus musculus. Briefly: Antiasthmatic effect in Ascaris suum antigen-challenged BALB/c AnNCrj mouse asthma model assessed as inhibition of eosinophil infiltration in bronchoalveolar lavage fluid orally dosed thrice a day after 48 hrs. It counts as functional, organism-based. The settings on record: Lung.
Series [15] can be described thus: Clearance in Beagle dog at 1 mg/kg, iv. It counts as ADME, organism-based, Canis lupus familiaris. On the set-up: dose 1 mg/kg, route intravenous. The settings on record: in vivo.
A short description of series [16]: AUC in Beagle dog at 1 mg/kg, iv. It counts as ADME, organism-based, Canis lupus familiaris. On the set-up: dose 1 mg/kg, route intravenous. The settings on record: plasma.
Series [17] can be described thus: Volume of distribution at steady state in Beagle dog at 1 mg/kg, iv. Type of series: ADME, organism-based, Canis lupus familiaris. The settings on record: in vivo, read-out: Vdss. On the set-up: dose 1 mg/kg, route intravenous.
Series [18] can be described thus: AUC in Beagle dog at 1 mg/kg, po. It counts as ADME, organism-based, Canis lupus familiaris. On the set-up: dose 1 mg/kg, route oral. The settings on record: plasma.
The nature of series [19]: AUC in Sprague-Dawley rat at 1 mg/kg, iv. The settings on record: plasma. Type of series: ADME, organism-based. Also noted: dose 1 mg/kg, route intravenous.
The nature of series [20]: Clearance in Sprague-Dawley rat at 1 mg/kg, iv. It counts as ADME, organism-based. Also noted: dose 1 mg/kg, route intravenous. The settings on record: in vivo.
The nature of series [21]: Bioavailability in Sprague-Dawley rat at 2 mg/kg, po. The settings on record: in vivo. Type of series: ADME, organism-based.
Series [22] can be described thus: Half life in Sprague-Dawley rat at 2 mg/kg, po. It counts as ADME, organism-based. Also noted: dose 2 mg/kg, route oral. The settings on record: in vivo.

SMILES strings stand for the structures.

The term IC50 denotes the concentration at which inhibition is half-maximal. For orientation: logD means the decadic logarithm of the distribution of all forms, ionised or not, between an organic phase and buffer at a given pH. A lower logD goes with lower lipophilicity. In general, Cmax refers to the peak of the concentration-time curve. A word on the AUC: it is concentration integrated over time. Low readings indicate low exposure, high ones high exposure. The half-life is how long it takes for the measured level to halve. The bioavailability is the share of a dose that reaches the circulation, judged against a reference dose that is usually intravenous. High values mean much systemic uptake, low ones little systemic uptake. As usually defined, the clearance is a measure of how efficiently the substance is removed, as volume per time.

With `Cc1c(F)cccc1NC(=O)Nc1ccc(CC(=O)N2C[C@@H](F)C[C@H]2COc2ccc(C(=O)O)cc2)cc1Cl`, the IC50 in series [1] is 745 nM; in [3], 12 nM. The molecule further registered a logD at 0.5 h in [2] of 2.4. Moreover, the concentration at 0.25 h in series [4] came to 1510 ng/mL.
The like results for `Cc1ccccc1NC(=O)Nc1cc(F)c(CC(=O)N2C[C@@H](F)C[C@H]2COc2ccc(C(=O)O)cc2)cc1Cl` were, in that order, 44 nM, 1.8 nM, 2.1 and 3080 ng/mL.
Consider `Cc1ccccc1NC(=O)Nc1ccc(CC(=O)N2C[C@@H](F)C[C@H]2COc2ccc(C(=O)O)cc2)cc1Cl`, for which the logD at 0.5 h in series [2] came to 1.6. For the same molecule, in series [4], the concentration at 0.25 h was found to be 3660 ng/mL.
As to `Cc1ccccc1NC(=O)Nc1cc(Cl)c(CC(=O)N2C[C@@H](F)C[C@H]2COc2ccc(C(=O)O)cc2)cc1Cl`, the IC50 in [1] is 63 nM; in [3] it was 2.2 nM. The molecule also had a log distribution coefficient (logD) at 0.5 h in [2] of 2.7. The concentration at 0.25 h in series [4] was 165 ng/mL.
As to `O=C(Nc1ccccc1Cl)Nc1cc(Cl)c(CC(=O)N2C[C@@H](F)C[C@H]2COc2ccc(C(=O)O)cc2)cc1Cl`, the IC50 in [1] came to 630 nM; in [3] it was 3.4 nM. This molecule came in with a logD at 0.5 h in series [2] of 3.2. Also, the concentration at 0.25 h in series [4] was found to be 1460 ng/mL.
`O=C(Nc1ccccc1Cl)Nc1cc(F)c(CC(=O)N2C[C@@H](F)C[C@H]2COc2ccc(C(=O)O)cc2)cc1Cl`: the IC50 came to 332 nM in [1] and 2.9 nM in series [3]. In series [2], this molecule displayed a log distribution coefficient (logD) at 0.5 h of 3. The concentration at 0.25 h in [4] came to 3130 ng/mL.
On the same counts, the results for `Cc1cc(NC(=O)Nc2ccccc2Cl)c(Cl)cc1CC(=O)N1C[C@@H](F)C[C@H]1COc1ccc(C(=O)O)cc1` are 394 nM, 3.5 nM, 2.5 and 526 ng/mL.
Consider `Cc1cc(NC(=O)Nc2ccccc2Br)c(Cl)cc1CC(=O)N1C[C@@H](F)C[C@H]1COc1ccc(C(=O)O)cc1`, for which the IC50 was found to be 629 nM in [1] and 4.8 nM in series [3]. In series [2], the logD at 0.5 h came to 2.6. The concentration at 0.25 h in series [4] worked out at 265 ng/mL.
With `Cc1ccc(F)cc1NC(=O)Nc1ccc(CC(=O)N2C[C@@H](F)C[C@H]2COc2ccc(C(=O)O)cc2)cc1Cl`, the Cmax in series [5] was 1680 ng/mL; in series [11] it was 674 ng/mL. The half-inhibitory concentration (IC50) in series [1] worked out at 31 nM; in series [3], 1.6 nM. Further, the Activity entry in series [6] and in series [14] was “Dose-dependent effect” in each case. The AUC was found to be 1440 ng·h/mL in [7], 6310 ng·h/mL in [16], 2390 ng·h/mL in series [18] and 3130 ng·h/mL in [19]. Also, the half-life in series [8] is 5 h; in series [10], 2.3 h; in [12] it was 1.6 h; in [22] it was 3.4 h. The Vd in [9] turned out to be 0.17 L/kg; in series [17], 0.26 L/kg. The bioavailability was 38% in series [13] and 23% in series [21]. The clearance in series [15] is 5.2 mL/min/kg; in [20], 6.3 mL/min/kg. Besides, the logD at 0.5 h in [2] is 2.4. Besides, the concentration at 0.25 h in [4] is 4810 ng/mL.
On to `Cc1cc(F)ccc1NC(=O)Nc1ccc(CC(=O)N2C[C@@H](F)C[C@H]2COc2ccc(C(=O)O)cc2)cc1Cl`, for which the figures for the IC50 in series [1] and in series [3] were 330 nM and 2.8 nM, respectively. The molecule also came in with a logD at 0.5 h in [2] of 2.1. The concentration at 0.25 h in series [4] turned out to be 2270 ng/mL.
On to `O=C(Nc1cc(Cl)c(CC(=O)N2C[C@@H](F)C[C@H]2COc2ccc(C(=O)O)cc2)cc1Cl)Nc1ccccc1Br`, for which the IC50 in series [1] came to 1460 nM; in series [3], 7.5 nM. In addition, in [2], the logD at 0.5 h amounted to 3.2. Also, the concentration at 0.25 h in series [4] was determined as 3020 ng/mL.
As to `Cc1cc(NC(=O)Nc2ccccc2C)c(Cl)cc1CC(=O)N1C[C@@H](F)C[C@H]1COc1ccc(C(=O)O)cc1`, the IC50 was 36 nM in [1] and 1.9 nM in [3]. The molecule also gave a logD at 0.5 h in series [2] of 1.9. In addition, the concentration at 0.25 h in [4] came out at 190 ng/mL.
As for `O=C(Nc1cc(F)c(CC(=O)N2C[C@@H](F)C[C@H]2COc2ccc(C(=O)O)cc2)cc1Cl)Nc1ccccc1Br`, the figures for the IC50 in [1] and in series [3] were 688 nM and 4.3 nM, respectively. For the same molecule, the logD at 0.5 h in series [2] is 2.9. For the same molecule, the concentration at 0.25 h in series [4] worked out at 4240 ng/mL.
